The values below come from patent US7671062B2, “Modulators of chemokine receptor activity, crystalline forms and process” (Bristol-Myers Squibb Company, priority 2006, dated 2010).

The nature of series [1]: Parallel Artificial Membrane Permeability Assay (PAMPA). To be noted: mean ± SD (n in parentheses).
Excerpt: The Parallel Artificial Membrane Permeability Assay (PAMPA) consists of a specially formulated lecithin-based lipid combination referred to as the gastrointestinal tract (GIT) lipid. The GIT lipid is used to form a membrane in a sandwich plate assembly similar to that used in the Caco-2 assays. […] The rate of passage of compounds through the PAMPA membrane is used to determine a permeability coefficient (Pc), which can be related to the in vivo passive permeability of the compound.
The permeability coefficient (Pc) of a particular compound is examined in a pH-dependent setting with apical and basolateral pH of 7.4. All experiments are conducted in triplicate determinations.
The PAMPA assay plate (donor side and acceptor side) was combined and allowed to incubate at room temperature for 4 hours. […] The donor, acceptor, reference, and blank plates were read in the SpectraMax UV plate reader. Data was captured by the pION software, which analyzes the spectra and generates Pc values.
The test system of a further series is monkey PBMC's. Kind of series: In vitro chemotaxis assay with monkey PBMC's. It is filed as cell-based, Cynomolgus monkey. The settings on record: Primates, highly variable. The text has this:
The first employs monkey PBMC's while the second uses L1.2 cells stably transfected with Cyno CCR2.

For the compound `CC(=O)N[C@@H]1C[C@H](N(C)C(C)C)CC[C@@H]1N1CC[C@H](Nc2ncnc3ccc(C(F)(F)F)cc23)C1=O` [Example 1, N-((1R,2S,5R)-5-(isopropyl(methyl)amino)-2-((S)-2-oxo-3-(6-(trifluoromethyl)quinazolin-4-ylamino)pyrrolidin-1-yl)cyclohexyl)acetamide], the PAMPA permeability in series [1] was 443 ± 114 (8) nm/sec. Also, in the series on monkey PBMC's, half-maximal inhibition (IC50) was put at 5.5 ± 10 nM.
